Laboratory results: patent US20090139433A1, “DENTAL MATERIALS BASED ON ALKYLENEDIAMINE-N,N,N',N'- TETRAACETIC ACID- (METH)ACRYLAMIDES” (Ivoclar Vivadent AG, priority 2007, published 2009)

Assay: Examination of the resistance to hydrolysis by 1H-NMR on storage
Type: physicochemical
Settings: 20% solution in DMSO-d6/D2O (1:1); for hydrolysis products in the 1H-NMR spectrum at the start of the investigation: 37° C., at the start / immediately
Experimental: To examine the hydrolysis stabilities of the monomers MAM-EDTA and MA-EDTA, respectively, in each case a 20% solution in DMSO-d6/D2O (1:1) was stored at 37° C. At certain intervals, the ^1H-NMR spectra of these solutions were recorded. […] After 119 days' storage at 37° C., approx. 50% of the methacrylic ester groups had been hydrolyzed. In contrast, the monomer MAM-EDTA according to the invention was clearly more hydrolysis-resistant.

| methacrylic ester groups hydrolyzed (after 119 days' storage at 37° C., 1H-NMR) | Substance | hydrolysis products in the 1H-NMR spectrum at the start of the investigation | additional double-bond signals in the 1H-NMR spectrum (after 119 days at 37° C.) |
| --- | --- | --- | --- |
| approx. 50% | EDTA-di(2-methacryloyloxyethyl)ester [MA-EDTA] | a second double-bond signal could be observed immediately | – |
| – | EDTA-di(5-methacrylamidopentyl)ester [MAM-EDTA] | no hydrolysis products could be recognized | no additional double-bond signals could be detected |
